Columns and labels:
[1] = The drug is tested on Bacteroides xylanisolvens strain: DSM18836 for biotransformation. The drug concentrations were measured before and after a 12-h incubation by liquid-chromatography-coupled mass spectrometry (LC–MS); settings: 2 µM
[2] = The drug is tested on Collinsella intestinalis strain: DSM13280 for biotransformation. The drug concentrations were measured before and after a 12-h incubation by liquid-chromatography-coupled mass spectrometry (LC–MS); settings: 2 µM
[3] = bacteroides thetaiotaomicron, 12 h, 2 µM
[4] = The drug is tested on Eubacterium rectale strain: ATCC33656 for biotransformation. The drug concentrations were measured before and after a 12-h incubation by liquid-chromatography-coupled mass spectrometry (LC–MS); settings: agathobacter rectalis, 2 µM
[5] = parabacteroides johnsonii, 12 h, 2 µM
Description: The drug is tested on Parabacteroides johnsonii strain: DSM18315 for biotransformation. The drug concentrations were measured before and after a 12-h incubation by liquid-chromatography-coupled mass spectrometry (LC–MS)

[6] = The drug is tested on Bacteroides fragilis strain: ATCC43859 for biotransformation. The drug concentrations were measured before and after a 12-h incubation by liquid-chromatography-coupled mass spectrometry (LC–MS); settings: 2 µM
[7] = The drug is tested on Dorea formicigenerans strain: ATCC27755 for biotransformation. The drug concentrations were measured before and after a 12-h incubation by liquid-chromatography-coupled mass spectrometry (LC–MS); settings: 2 µM
[8] = The drug is tested on Providencia stuartii strain: ATCC25827 for biotransformation. The drug concentrations were measured before and after a 12-h incubation by liquid-chromatography-coupled mass spectrometry (LC–MS); settings: 2 µM
[9] = The drug is tested on Bacteroides sp. WH2 strain: WH2 for biotransformation. The drug concentrations were measured before and after a 12-h incubation by liquid-chromatography-coupled mass spectrometry (LC–MS); settings: bacteroides sp. wh2, 12 h, 2 µM
[10] = The drug is tested on Bacteroides cellulosilyticus strain: DSM14838 for biotransformation. The drug concentrations were measured before and after a 12-h incubation by liquid-chromatography-coupled mass spectrometry (LC–MS); settings: 2 µM
[11] = bacteroides fragilis, 12 h, 2 µM
Description: The drug is tested on Bacteroides fragilis strain: 3397 (T10) for biotransformation. The drug concentrations were measured before and after a 12-h incubation by liquid-chromatography-coupled mass spectrometry (LC–MS)

[12] = The drug is tested on Collinsella aerofaciens strain: ATCC25986 for biotransformation. The drug concentrations were measured before and after a 12-h incubation by liquid-chromatography-coupled mass spectrometry (LC–MS); settings: 2 µM
[13] = The drug is tested on Bacteroides ovatus strain: ATCC8483 for biotransformation. The drug concentrations were measured before and after a 12-h incubation by liquid-chromatography-coupled mass spectrometry (LC–MS); settings: 2 µM
[14] = The drug is tested on Clostridium sporogenes strain: ATCC15579 for biotransformation. The drug concentrations were measured before and after a 12-h incubation by liquid-chromatography-coupled mass spectrometry (LC–MS); settings: 2 µM
[15] = The drug is tested on Odoribacter splanchnicus strain: fecal isolate for biotransformation. The drug concentrations were measured before and after a 12-h incubation by liquid-chromatography-coupled mass spectrometry (LC–MS); settings: 2 µM
[16] = The drug is tested on Bacteroides coprophilus strain: DSM18228 for biotransformation. The drug concentrations were measured before and after a 12-h incubation by liquid-chromatography-coupled mass spectrometry (LC–MS); settings: 2 µM
[17] = akkermansia muciniphila, 12 h, 2 µM
[18] = bacteroides thetaiotaomicron, 12 h, 2 µM; remark: listed apart in the source
[19] = The drug is tested on Bacteroides fragilis strain: HMW615 for biotransformation. The drug concentrations were measured before and after a 12-h incubation by liquid-chromatography-coupled mass spectrometry (LC–MS); settings: 2 µM
[20] = The drug is tested on Providencia rettgeri strain: DSM1131 for biotransformation. The drug concentrations were measured before and after a 12-h incubation by liquid-chromatography-coupled mass spectrometry (LC–MS); type: ADME; design: dose 2 uM, timepoint 0 vs 12 hours; settings: 2 µM

| SMILES | Bacterial Biotransformation [1] | Bacterial Biotransformation [2] | Bacterial Biotransformation [3] | Bacterial Biotransformation [4] | Bacterial Biotransformation [5] | Bacterial Biotransformation [6] | Bacterial Biotransformation [7] | Bacterial Biotransformation [8] | Bacterial Biotransformation [9] | Bacterial Biotransformation [10] | Bacterial Biotransformation [11] | Bacterial Biotransformation [12] | Bacterial Biotransformation [13] | Bacterial Biotransformation [14] | Bacterial Biotransformation [15] | Bacterial Biotransformation [16] | Bacterial Biotransformation [17] | Bacterial Biotransformation [18] | Bacterial Biotransformation [19] | Bacterial Biotransformation [20] |
| --- | --- | --- | --- | --- | --- | --- | --- | --- | --- | --- | --- | --- | --- | --- | --- | --- | --- | --- | --- | --- |
| OC(CCN1CCCCC1)(c1ccccc1)C1CCCCC1 (stereo not given) [TRIHEXYPHENIDYL] | Compound NOT metabolized | Compound NOT metabolized | Compound NOT metabolized | Compound NOT metabolized | Compound NOT metabolized | Compound NOT metabolized | Compound NOT metabolized | Compound NOT metabolized | Compound NOT metabolized | Compound NOT metabolized | Compound NOT metabolized | Compound NOT metabolized | Compound NOT metabolized |  |  |  |  |  |  |  |
| CC1=C(CC(=O)O)c2cc(F)ccc2/C1=C\c1ccc([S+](C)[O-])cc1 (stereo not given) | Compound NOT metabolized | Compound NOT metabolized | Compound NOT metabolized |  | Compound NOT metabolized | Compound NOT metabolized | Compound NOT metabolized | Compound NOT metabolized | Compound NOT metabolized | Compound NOT metabolized | Compound NOT metabolized | Compound NOT metabolized | Compound NOT metabolized | Compound NOT metabolized | Compound NOT metabolized | Compound NOT metabolized | Compound NOT metabolized | Compound NOT metabolized | Compound NOT metabolized |  |
| COc1ccc(CCN(C)CCCC(C#N)(c2ccc(OC)c(OC)c2)C(C)C)cc1OC (stereo not given) | Compound metabolized | Compound NOT metabolized | Compound metabolized |  |  | Compound NOT metabolized | Compound NOT metabolized | Compound NOT metabolized | Compound NOT metabolized | Compound NOT metabolized |  | Compound NOT metabolized | Compound metabolized |  | Compound metabolized | Compound NOT metabolized | Compound metabolized | Compound metabolized | Compound NOT metabolized | Compound NOT metabolized |
| CN(C)CCc1c[nH]c2ccc(Cn3cncn3)cc12.O=C(O)c1ccccc1 [RIZATRIPTAN BENZOATE] | Compound NOT metabolized | Compound NOT metabolized |  |  |  | Compound NOT metabolized | Compound NOT metabolized | Compound NOT metabolized | Compound NOT metabolized | Compound NOT metabolized |  | Compound NOT metabolized |  |  |  | Compound metabolized | Compound NOT metabolized | Compound NOT metabolized | Compound NOT metabolized | Compound NOT metabolized |
| CCOc1ccccc1OCCN[C@H](C)Cc1ccc(OC)c(S(N)(=O)=O)c1.Cl [TAMSULOSIN HYDROCHLORIDE] | Compound NOT metabolized | Compound NOT metabolized | Compound NOT metabolized |  | Compound NOT metabolized | Compound NOT metabolized | Compound NOT metabolized | Compound NOT metabolized | Compound NOT metabolized | Compound NOT metabolized | Compound NOT metabolized | Compound NOT metabolized | Compound NOT metabolized |  | Compound NOT metabolized | Compound NOT metabolized | Compound NOT metabolized | Compound NOT metabolized | Compound NOT metabolized | Compound NOT metabolized |
| COc1cc(C(=O)NCc2ccc(OCCN(C)C)cc2)cc(OC)c1OC [TRIMETHOBENZAMIDE] | Compound NOT metabolized | Compound NOT metabolized | Compound NOT metabolized |  | Compound NOT metabolized | Compound NOT metabolized | Compound NOT metabolized | Compound NOT metabolized | Compound NOT metabolized | Compound NOT metabolized | Compound NOT metabolized | Compound NOT metabolized | Compound NOT metabolized | Compound NOT metabolized | Compound NOT metabolized | Compound NOT metabolized | Compound NOT metabolized | Compound NOT metabolized | Compound NOT metabolized |  |
| Cc1ccc(S(=O)(=O)NC(=O)NN2CCCCCC2)cc1 [TOLAZAMIDE] | Compound metabolized | Compound NOT metabolized | Compound metabolized |  | Compound metabolized | Compound metabolized | Compound NOT metabolized |  | Compound NOT metabolized | Compound metabolized | Compound metabolized |  | Compound metabolized |  | Compound metabolized | Compound metabolized |  | Compound metabolized | Compound metabolized | Compound NOT metabolized |
| N#Cc1ccc2[nH]cc(CCCCN3CCN(c4ccc5oc(C(N)=O)cc5c4)CC3)c2c1 [VILAZODONE] | Compound metabolized | Compound NOT metabolized | Compound metabolized |  | Compound metabolized | Compound metabolized | Compound NOT metabolized | Compound metabolized | Compound metabolized | Compound metabolized | Compound metabolized | Compound NOT metabolized | Compound metabolized | Compound metabolized | Compound metabolized | Compound metabolized | Compound NOT metabolized | Compound metabolized | Compound metabolized |  |
| CC(C)(C)N.CCC[C@H](N[C@@H](C)C(=O)N1[C@H](C(=O)O)C[C@@H]2CCCC[C@@H]21)C(=O)OCC [PERINDOPRIL ERBUMINE] | Compound NOT metabolized | Compound NOT metabolized | Compound NOT metabolized |  |  | Compound NOT metabolized | Compound NOT metabolized | Compound NOT metabolized | Compound NOT metabolized | Compound NOT metabolized | Compound NOT metabolized | Compound NOT metabolized | Compound NOT metabolized | Compound NOT metabolized | Compound NOT metabolized | Compound NOT metabolized | Compound NOT metabolized |  |  | Compound NOT metabolized |

— ChEMBL document CHEMBL5303573, “Mapping human microbiome drug metabolism by gut bacteria and their genes” (Nature, 2019)
